Assay results: ChEMBL document CHEMBL3352334, “Design, synthesis and pharmacological evaluation of 2-(thiazol-2-amino)-4-arylaminopyrimidines as potent anaplastic lymphoma kinase (ALK) inhibitors” (Eur J Med Chem, 2014)
Each block holds one compound with its values, some of them ahead of it.

How the values were obtained:
[1] = Antiproliferative activity against human SUP-M2 cells assessed as growth inhibition at 1000 nM after 72 hrs by SRB assay; type: functional; settings: SUP-M2, 72 h, read-out: GI
[2] = Antiproliferative activity against human SUP-M2 cells assessed as growth inhibition at 200 nM after 72 hrs by SRB assay; type: functional; settings: SUP-M2, 72 h, read-out: GI
[3] = biological target: T1, ALK tyrosine kinase receptor (Homo sapiens, UniProt Q9UM73); assay: Inhibition of purified ALK (unknown origin) after 60 mins by ELISA kinase assay
Target sequence in this assay (Q9UM73 whole entry): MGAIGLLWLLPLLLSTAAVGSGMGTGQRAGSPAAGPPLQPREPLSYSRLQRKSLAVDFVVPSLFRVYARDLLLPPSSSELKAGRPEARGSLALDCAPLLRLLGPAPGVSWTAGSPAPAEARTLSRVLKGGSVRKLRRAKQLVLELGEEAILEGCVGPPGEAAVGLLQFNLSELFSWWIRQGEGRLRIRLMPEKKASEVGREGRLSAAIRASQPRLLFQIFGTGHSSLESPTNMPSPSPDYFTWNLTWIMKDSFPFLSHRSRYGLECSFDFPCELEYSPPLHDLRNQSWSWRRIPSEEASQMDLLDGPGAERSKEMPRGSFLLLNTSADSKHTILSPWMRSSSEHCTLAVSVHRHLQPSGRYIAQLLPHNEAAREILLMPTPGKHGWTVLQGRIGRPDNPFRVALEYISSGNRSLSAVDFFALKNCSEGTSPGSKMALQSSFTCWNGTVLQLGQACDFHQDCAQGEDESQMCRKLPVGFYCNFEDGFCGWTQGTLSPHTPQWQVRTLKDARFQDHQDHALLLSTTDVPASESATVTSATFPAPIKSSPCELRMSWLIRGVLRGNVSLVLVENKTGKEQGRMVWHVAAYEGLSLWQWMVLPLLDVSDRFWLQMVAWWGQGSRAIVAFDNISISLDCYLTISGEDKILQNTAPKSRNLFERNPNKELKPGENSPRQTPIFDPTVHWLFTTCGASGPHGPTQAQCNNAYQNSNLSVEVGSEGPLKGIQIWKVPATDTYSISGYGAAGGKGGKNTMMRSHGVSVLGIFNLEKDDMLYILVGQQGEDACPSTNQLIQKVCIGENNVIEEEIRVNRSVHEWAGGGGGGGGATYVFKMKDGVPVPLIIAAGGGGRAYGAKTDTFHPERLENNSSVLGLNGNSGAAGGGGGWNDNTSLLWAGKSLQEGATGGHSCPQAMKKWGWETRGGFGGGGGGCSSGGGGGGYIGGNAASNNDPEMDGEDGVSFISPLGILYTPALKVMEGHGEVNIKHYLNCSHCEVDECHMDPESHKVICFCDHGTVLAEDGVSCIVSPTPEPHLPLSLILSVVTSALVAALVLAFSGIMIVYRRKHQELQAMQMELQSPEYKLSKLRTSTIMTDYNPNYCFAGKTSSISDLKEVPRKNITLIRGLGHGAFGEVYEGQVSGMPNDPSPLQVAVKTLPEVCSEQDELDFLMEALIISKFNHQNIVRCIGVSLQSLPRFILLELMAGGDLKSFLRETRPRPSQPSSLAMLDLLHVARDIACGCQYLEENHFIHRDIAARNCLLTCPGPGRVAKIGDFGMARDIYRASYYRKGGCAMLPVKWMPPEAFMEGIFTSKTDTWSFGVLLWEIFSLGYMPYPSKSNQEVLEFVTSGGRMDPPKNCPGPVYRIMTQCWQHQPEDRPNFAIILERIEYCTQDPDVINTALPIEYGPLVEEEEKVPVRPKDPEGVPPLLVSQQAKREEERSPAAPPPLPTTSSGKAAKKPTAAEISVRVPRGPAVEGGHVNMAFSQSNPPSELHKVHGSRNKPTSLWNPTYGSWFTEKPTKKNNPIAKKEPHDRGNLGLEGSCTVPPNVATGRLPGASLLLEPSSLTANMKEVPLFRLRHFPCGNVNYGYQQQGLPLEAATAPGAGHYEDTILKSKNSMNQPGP

[4] = biological target: T2, Hepatocyte growth factor receptor (Homo sapiens, UniProt P08581); assay: Inhibition of purified c-MET (unknown origin) at 1 uM after 60 mins by ELISA kinase assay
[5] = biological target: Insulin-like growth factor 1 receptor (Homo sapiens) (UniProt P08069); assay: Inhibition of purified IGF1R (unknown origin) at 1 uM after 60 mins by ELISA kinase assay
[6] = biological target: Proto-oncogene tyrosine-protein kinase Src (Homo sapiens) (UniProt P12931); assay: Inhibition of purified c-Src (unknown origin) at 1 uM after 60 mins by ELISA kinase assay
[7] = biological target: Proto-oncogene tyrosine-protein kinase receptor Ret (Homo sapiens) (UniProt P07949); assay: Inhibition of purified RET (unknown origin) at 1 uM after 60 mins by ELISA kinase assay
[8] = biological target: Vascular endothelial growth factor receptor 1 (Homo sapiens) (UniProt P17948); assay: Inhibition of purified Flt-1 (unknown origin) at 1 uM after 60 mins by ELISA kinase assay
[9] = biological target: Ephrin type-A receptor 2 (Homo sapiens) (UniProt P29317); assay: Inhibition of purified EPH-A2 (unknown origin) at 1 uM after 60 mins by ELISA kinase assay
[10] = biological target: Tyrosine-protein kinase ABL1 (Homo sapiens) (UniProt P00519); assay: Inhibition of purified Abl (unknown origin) at 1 uM after 60 mins by ELISA kinase assay
[11] = biological target: Receptor tyrosine-protein kinase erbB-4 (Homo sapiens) (UniProt Q15303); assay: Inhibition of purified ErbB4 (unknown origin) at 1 uM after 60 mins by ELISA kinase assay
[12] = biological target: T2, Hepatocyte growth factor receptor; assay: Inhibition of purified c-MET (unknown origin) after 60 mins by ELISA kinase assay
[13] = biological target: Receptor-type tyrosine-protein kinase FLT3 (Homo sapiens) (UniProt P36888); assay: Inhibition of purified Flt-3 (unknown origin) at 1 uM after 60 mins by ELISA kinase assay
[14] = biological target: T1, ALK tyrosine kinase receptor; settings: 1 uM
Description: Inhibition of purified ALK (unknown origin) at 1 uM after 60 mins by ELISA kinase assay

[15] = biological target: ALK tyrosine kinase receptor (Homo sapiens, UniProt Q9UM73, L1196M); assay: Inhibition of purified ALK L1196M mutant (unknown origin) after 60 mins by ELISA kinase assay
[16] = biological target: Platelet-derived growth factor receptor alpha (Homo sapiens) (UniProt P16234); assay: Inhibition of purified PDGFRalpha (unknown origin) at 1 uM after 60 mins by ELISA kinase assay
[17] = biological target: Platelet-derived growth factor receptor beta (Homo sapiens) (UniProt P09619); assay: Inhibition of purified PDGFRbeta (unknown origin) at 1 uM after 60 mins by ELISA kinase assay
[18] = biological target: Epidermal growth factor receptor (Homo sapiens) (UniProt P00533); assay: Inhibition of purified EGFR (unknown origin) at 1 uM after 60 mins by ELISA kinase assay
[19] = biological target: Fibroblast growth factor receptor 1 (Homo sapiens) (UniProt P11362); assay: Inhibition of purified FGFR1 (unknown origin) at 1 uM after 60 mins by ELISA kinase assay
[20] = biological target: Vascular endothelial growth factor receptor 2 (Homo sapiens) (UniProt P35968); assay: Inhibition of purified KDR (unknown origin) at 1 uM after 60 mins by ELISA kinase assay
[21] = biological target: Receptor tyrosine-protein kinase erbB-2 (Homo sapiens) (UniProt P04626); assay: Inhibition of purified ErbB2 (unknown origin) at 1 uM after 60 mins by ELISA kinase assay
[22] = biological target: Insulin-like growth factor 1 receptor (Homo sapiens) (UniProt P08069); assay: Inhibition of purified IGF1R (unknown origin) at 0.1 uM after 60 mins by ELISA kinase assay
[23] = biological target: Fibroblast growth factor receptor 1 (Homo sapiens) (UniProt P11362); assay: Inhibition of purified FGFR1 (unknown origin) at 0.1 uM after 60 mins by ELISA kinase assay
[24] = biological target: Vascular endothelial growth factor receptor 2 (Homo sapiens) (UniProt P35968); assay: Inhibition of purified KDR (unknown origin) at 0.1 uM after 60 mins by ELISA kinase assay
[25] = biological target: T1, ALK tyrosine kinase receptor; assay: Inhibition of ALK-mediated AKT phosphorylation in human H3122 cells; type: cell-based
[26] = biological target: T1, ALK tyrosine kinase receptor; assay: Inhibition of ALK-mediated ERK phosphorylation in human H3122 cells; type: cell-based
[27] = biological target: T1, ALK tyrosine kinase receptor; assay: Inhibition of ALK-mediated STAT3 phosphorylation in human H3122 cells; type: cell-based
[28] = biological target: T1, ALK tyrosine kinase receptor; assay: Inhibition of ALK phosphorylation in human H3122 cells; type: cell-based

T2 sequence (P08581 whole entry): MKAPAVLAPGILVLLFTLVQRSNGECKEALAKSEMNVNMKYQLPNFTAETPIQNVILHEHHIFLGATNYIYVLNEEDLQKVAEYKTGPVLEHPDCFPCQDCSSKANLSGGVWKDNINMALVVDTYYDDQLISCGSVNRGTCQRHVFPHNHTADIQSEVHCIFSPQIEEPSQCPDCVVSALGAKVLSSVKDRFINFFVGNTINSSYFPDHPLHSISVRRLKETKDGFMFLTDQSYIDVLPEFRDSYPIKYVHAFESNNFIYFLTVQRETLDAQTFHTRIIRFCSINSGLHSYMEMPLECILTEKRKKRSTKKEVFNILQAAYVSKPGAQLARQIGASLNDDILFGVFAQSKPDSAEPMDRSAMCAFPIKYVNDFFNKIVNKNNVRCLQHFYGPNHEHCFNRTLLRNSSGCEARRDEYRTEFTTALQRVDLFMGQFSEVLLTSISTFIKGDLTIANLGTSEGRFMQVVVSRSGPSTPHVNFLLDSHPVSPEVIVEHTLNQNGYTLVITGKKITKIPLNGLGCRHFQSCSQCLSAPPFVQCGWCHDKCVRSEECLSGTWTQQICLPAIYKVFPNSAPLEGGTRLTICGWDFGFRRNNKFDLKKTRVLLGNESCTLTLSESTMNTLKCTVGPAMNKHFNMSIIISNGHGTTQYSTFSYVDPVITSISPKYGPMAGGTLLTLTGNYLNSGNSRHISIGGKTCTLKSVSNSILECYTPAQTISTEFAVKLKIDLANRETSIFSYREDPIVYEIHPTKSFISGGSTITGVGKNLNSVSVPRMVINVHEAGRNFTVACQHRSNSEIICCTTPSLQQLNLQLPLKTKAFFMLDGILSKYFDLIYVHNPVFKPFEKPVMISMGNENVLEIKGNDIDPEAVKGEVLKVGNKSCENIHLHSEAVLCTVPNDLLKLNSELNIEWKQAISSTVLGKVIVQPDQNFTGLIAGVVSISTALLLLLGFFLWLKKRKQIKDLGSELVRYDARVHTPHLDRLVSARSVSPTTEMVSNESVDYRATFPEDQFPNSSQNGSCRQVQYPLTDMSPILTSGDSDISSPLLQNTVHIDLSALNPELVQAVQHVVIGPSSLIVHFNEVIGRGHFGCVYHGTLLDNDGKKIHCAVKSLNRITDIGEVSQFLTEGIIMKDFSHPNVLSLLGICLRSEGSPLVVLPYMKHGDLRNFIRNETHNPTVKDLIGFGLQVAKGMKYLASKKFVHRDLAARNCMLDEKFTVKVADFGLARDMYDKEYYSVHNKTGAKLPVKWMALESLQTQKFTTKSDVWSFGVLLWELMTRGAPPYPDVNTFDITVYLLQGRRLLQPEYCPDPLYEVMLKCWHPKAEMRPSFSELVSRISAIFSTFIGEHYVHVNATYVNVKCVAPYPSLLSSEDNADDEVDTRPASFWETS
Sequence of Insulin-like growth factor 1 receptor (Homo sapiens) (P08069 31-736 limits assumed): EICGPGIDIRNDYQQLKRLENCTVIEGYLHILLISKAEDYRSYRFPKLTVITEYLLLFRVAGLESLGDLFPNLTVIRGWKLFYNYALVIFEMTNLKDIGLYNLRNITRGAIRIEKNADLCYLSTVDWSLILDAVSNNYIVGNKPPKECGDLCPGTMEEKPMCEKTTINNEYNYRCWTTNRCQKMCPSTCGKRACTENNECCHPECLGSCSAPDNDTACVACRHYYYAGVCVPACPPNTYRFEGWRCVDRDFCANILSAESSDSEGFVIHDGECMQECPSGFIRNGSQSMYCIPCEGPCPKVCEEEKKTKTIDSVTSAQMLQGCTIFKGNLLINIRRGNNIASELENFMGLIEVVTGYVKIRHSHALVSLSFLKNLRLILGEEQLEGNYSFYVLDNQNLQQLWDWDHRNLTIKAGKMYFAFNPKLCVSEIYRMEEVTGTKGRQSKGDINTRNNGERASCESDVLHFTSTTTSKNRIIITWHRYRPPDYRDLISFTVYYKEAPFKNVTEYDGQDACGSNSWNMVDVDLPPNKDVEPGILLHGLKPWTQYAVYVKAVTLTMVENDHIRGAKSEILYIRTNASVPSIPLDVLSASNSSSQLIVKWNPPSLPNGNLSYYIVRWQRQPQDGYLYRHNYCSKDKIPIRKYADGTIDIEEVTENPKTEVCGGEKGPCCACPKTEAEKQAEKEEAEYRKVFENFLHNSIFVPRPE
Sequence of Insulin-like growth factor 1 receptor (Homo sapiens) (P08069 741-1367 limits assumed): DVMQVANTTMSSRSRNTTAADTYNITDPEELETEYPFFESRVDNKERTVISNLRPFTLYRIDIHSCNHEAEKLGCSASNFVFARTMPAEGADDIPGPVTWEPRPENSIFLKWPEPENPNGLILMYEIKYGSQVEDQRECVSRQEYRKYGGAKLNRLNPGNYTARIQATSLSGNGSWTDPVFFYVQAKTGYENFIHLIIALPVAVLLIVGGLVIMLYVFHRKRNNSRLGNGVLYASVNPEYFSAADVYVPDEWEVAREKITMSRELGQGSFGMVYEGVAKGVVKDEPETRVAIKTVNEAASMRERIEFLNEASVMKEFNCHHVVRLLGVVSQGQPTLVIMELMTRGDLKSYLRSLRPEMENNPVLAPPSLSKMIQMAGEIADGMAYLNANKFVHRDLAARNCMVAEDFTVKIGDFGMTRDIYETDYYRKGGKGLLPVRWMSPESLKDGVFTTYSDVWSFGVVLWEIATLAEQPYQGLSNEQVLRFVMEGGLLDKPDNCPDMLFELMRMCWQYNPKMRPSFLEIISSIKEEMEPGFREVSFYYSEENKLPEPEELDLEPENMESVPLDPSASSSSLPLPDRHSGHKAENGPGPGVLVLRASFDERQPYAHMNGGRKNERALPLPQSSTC
Sequence of Proto-oncogene tyrosine-protein kinase Src (Homo sapiens) (P12931 2-536 limits assumed): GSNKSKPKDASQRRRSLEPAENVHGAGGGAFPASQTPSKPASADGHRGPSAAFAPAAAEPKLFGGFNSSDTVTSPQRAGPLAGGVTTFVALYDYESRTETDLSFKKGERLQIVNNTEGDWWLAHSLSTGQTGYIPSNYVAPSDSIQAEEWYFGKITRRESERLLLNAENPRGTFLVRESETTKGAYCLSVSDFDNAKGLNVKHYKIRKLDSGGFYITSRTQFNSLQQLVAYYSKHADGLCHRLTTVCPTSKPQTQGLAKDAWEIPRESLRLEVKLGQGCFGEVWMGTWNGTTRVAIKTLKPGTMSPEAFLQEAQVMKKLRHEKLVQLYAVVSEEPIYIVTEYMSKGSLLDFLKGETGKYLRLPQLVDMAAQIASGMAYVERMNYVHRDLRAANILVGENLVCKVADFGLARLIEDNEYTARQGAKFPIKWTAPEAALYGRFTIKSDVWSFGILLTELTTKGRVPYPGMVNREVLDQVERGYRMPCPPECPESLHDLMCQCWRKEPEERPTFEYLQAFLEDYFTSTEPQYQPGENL

IC50 [3]: > 1000 nM
SMILES: CCCCOC(=O)c1csc(Nc2ncc(Cl)c(Nc3ccccc3S(=O)(=O)C(C)C)n2)n1

IC50 [3]: > 1000 nM
SMILES: COC(=O)c1csc(Nc2ncc(Cl)c(Nc3ccccc3S(=O)(=O)C(C)C)n2)n1

IC50 [3]: > 1000 nM
SMILES: CNC(=O)c1csc(Nc2ncc(Cl)c(Nc3ccccc3S(=O)(=O)C(C)C)n2)n1

IC50 [3]: > 1000 nM
SMILES: CC(C)S(=O)(=O)c1ccccc1Nc1nc(Nc2nc(C(=O)N3CCOCC3)cs2)ncc1Cl

IC50 [3]: > 1000 nM
SMILES: CCOC(=O)c1csc(Nc2ncc(Cl)c(Nc3ccccc3S(=O)(=O)C(C)C)n2)n1

IC50 [3]: > 1000 nM
SMILES: CC(C)S(=O)(=O)c1ccccc1Nc1nc(Nc2nc(C(=O)N3CCCCC3)cs2)ncc1Cl

IC50 [3]: > 1000 nM
SMILES: CC(C)S(=O)(=O)c1ccccc1Nc1nc(Nc2nc(C(=O)O)cs2)ncc1Cl

Continued, compound first:

SMILES: CC(C)S(=O)(=O)c1ccccc1Nc1nc(Nc2nc(C(=O)N3C[C@H]4CN(C)C[C@H]4C3)cs2)ncc1Cl
inhibition of growth at 1 µM [1]: 61.4%
inhibition of growth at 0.2 µM [2]: -0.1%

SMILES: CC(C)S(=O)(=O)c1ccccc1Nc1nc(Nc2nc(C(=O)N3CC4CCC(C3)O4)cs2)ncc1Cl
inhibition of growth at 1 µM [1]: 63.4%
inhibition of growth at 0.2 µM [2]: 18.4%

SMILES: CC(C)S(=O)(=O)c1ccccc1Nc1nc(Nc2nc3c(s2)CCN(CC2CCOCC2)CC3)ncc1Cl
inhibition of growth at 1 µM [1]: 59.9%
inhibition of growth at 0.2 µM [2]: -13.7%

SMILES: CNC(=O)c1ccccc1Nc1nc(Nc2nc3c(s2)CCNCC3)ncc1Cl
IC50 [3]: 61.8 nM
inhibition [4]: 96%
inhibition [5]: 5.7%
inhibition [6]: 20.7%
inhibition [7]: 81.5%
inhibition [8]: 16.3%
inhibition [9]: 63.2%
inhibition [10]: 73.9%
inhibition [11]: 60.1%
IC50 [12]: 20 nM
inhibition [13]: 20.5%
inhibition [14]: 96%

SMILES: CC(C)S(=O)(=O)c1ccccc1Nc1nc(Nc2nc3c(s2)CCN(CCN2CCOCC2)CC3)ncc1Cl
inhibition of growth at 1 µM [1]: 83.5%
inhibition of growth at 0.2 µM [2]: 19.8%

SMILES: CC(C)S(=O)(=O)c1ccccc1Nc1nc(Nc2nc(C(=O)NCCN3CCOCC3)cs2)ncc1Cl
inhibition of growth at 1 µM [1]: 73.6%
inhibition of growth at 0.2 µM [2]: 29.5%

SMILES: CC(C)S(=O)(=O)c1ccccc1Nc1nc(Nc2nc3c(s2)CCN(C)CC3)ncc1Cl
inhibition of growth at 1 µM [1]: 67.7%
inhibition of growth at 0.2 µM [2]: 0.15%

SMILES: CC(C)S(=O)(=O)c1ccccc1Nc1nc(Nc2nc3c(s2)CCN(C(=O)C2CCOCC2)CC3)ncc1Cl
IC50 [3]: 12.4 nM
IC50 [15]: 24 nM
inhibition [4]: 4.9%
inhibition [16]: 18%
inhibition [17]: 5.6%
inhibition [18]: 15.8%
inhibition [5]: 52.8%
inhibition [19]: 100%
inhibition [6]: 51.3%
inhibition [7]: 77%
inhibition [20]: 53.5%
inhibition [8]: 0%
inhibition [9]: 23%
inhibition [10]: 45.6%
inhibition [21]: 0%
inhibition [11]: 33.4%
inhibition [22]: 15.8%
inhibition [23]: 69.2%
inhibition [24]: 40.6%
inhibition of growth at 1 µM [1]: 84.1%
inhibition of growth at 0.2 µM [2]: 23.2%
inhibition [25]: Dose-dependent effect
inhibition [26]: Dose-dependent effect
inhibition [27]: Dose-dependent effect
inhibition [28]: Dose-dependent effect

SMILES: CCOC(=O)N1CCc2nc(Nc3ncc(Cl)c(Nc4ccccc4S(=O)(=O)C(C)C)n3)sc2CC1
inhibition of growth at 1 µM [1]: 16.1%
inhibition of growth at 0.2 µM [2]: 5.5%

SMILES: CC(C)S(=O)(=O)c1ccccc1Nc1nc(Nc2nc3c(s2)CNCC3)ncc1Cl
IC50 [3]: > 1000 nM

SMILES: CC(C)S(=O)(=O)c1ccccc1Nc1nc(Nc2ncc(C(=O)N3C[C@H]4CN(C)C[C@H]4C3)s2)ncc1Cl
IC50 [3]: > 1000 nM

SMILES: COc1cc(NC(=O)c2csc(Nc3ncc(Cl)c(Nc4ccccc4S(=O)(=O)C(C)C)n3)n2)cc(OC)c1OC
IC50 [3]: > 1000 nM

SMILES: CC(C)S(=O)(=O)c1ccccc1Nc1nc(Nc2nc3c(s2)CCN(C(=O)CO)CC3)ncc1Cl
inhibition of growth at 1 µM [1]: 80.7%
inhibition of growth at 0.2 µM [2]: 3.7%

SMILES: CC(C)S(=O)(=O)c1ccccc1Nc1nc(Nc2nc3c(s2)CN(C)CC3)ncc1Cl
IC50 [3]: > 1000 nM

SMILES: CC(C)S(=O)(=O)c1ccccc1Nc1nc(Nc2nc(C(=O)N3CC4(CCNCC4)C3)cs2)ncc1Cl
IC50 [3]: > 1000 nM
